The term GI50 denotes the concentration at which growth is held to half of that of the control.

The values below come from publication PMC4413647, “Simultaneous targeting of androgen receptor (AR) and MAPK-interacting kinases (MNKs) by novel retinamides inhibits growth of human prostate cancer cell lines” (Oncotarget, 2014).

The subject of one assay is 22Rv1 cells. Briefly: MTT cell proliferation assay, 7 d, 22Rv1. Format: cell-based. The note with it: Homo sapiens, 22Rv1, 168 h, 7 d treatment. The source says:
(§1) Androgen-dependent (LNCaP), androgen-independent (PC-3) and castration resistant (C4-2B and 22Rv1) human prostate carcinoma cells were procured from American Type Culture Collection, Manassas, VA, USA and maintained in RPMI 1640 media (Gibco-Life Technologies, Grand Island, NY, USA) supplemented with 10% fetal bovine serum and 1% penicillin/streptomycin. […] Immortalized untransformed prostate epithelial cells, PWR1E from American Type Culture Collection were maintained in serum-free Keratinocyte media (Gibco) supplemented with epidermal growth factor and bovine pituitary extract. All cell lines were maintained in a 37 °C/5% CO2 humidified atmosphere.
(§2) Cell proliferation assay was performed as described previously. For cell growth experiment, cells were treated with the NRs for 7 days. MTT assay was performed at the end of the experiment. Calculations of combination indices were done using the Calcusyn program (Biosoft, Cambridge, United Kingdom). For colony formation assay, cells were plated 1000 per well in complete media and allowed to adhere for 24 h. The next day cells were treated with indicated compounds (5 μM). After 24 h compound containing media were removed, and cells were allowed to form colonies in complete media. Approximately 2 weeks later the colonies were fixed, stained with 0.5% crystal violet (sigma) for 30 min and counted manually. Results represent the mean ± standard deviation of three independent experiments.
Background: Tetrazolium assays rely on reduction of a dye to a coloured formazan, in cell work by metabolically active cells.

In another assay the test system is LNCaP cells. As to the kind of experiment: MTT cell proliferation assay, 7 d, LNCaP. Format: cell-based, human. The note with it: 7 d treatment.
Description: as §1, §2

In assay [1] the test system is PC-3 cells. As to the kind of experiment: MTT cell proliferation assay, 7 d, PC-3. As to conditions: Homo sapiens, PC-3, 168 h, 7 d treatment. Type of assay: cell-based.
Description: as §1, §2

The subject of assay [2] is PC-3 cells. As to the kind of experiment: Boyden chamber matrigel invasion assay. Format: cell-based, human. The note with it: PC-3, 5 μM, 24 h. How it is done:
Figure 5 Anti-migratory and anti-invasive potential of NRs (A) Effect of NRs treatment (5 μmol/L) on PC-3 cell migration was assessed by wound healing assay after 24 h of wound formation. Representative photomicrographs of initial and final wounds are shown at 100x magnification. (B) Effect of NRs on PC-3 cell invasion was evaluated by transwell migration assay. PC-3 cells were seeded on matrigel coated boyden chamber and treated with NRs (5 μmol/L, 24 h). Photographs represent the extent of cell invasion in each of the treated cells. (C) Western blot analysis of the effect of NRs on the expression of cadherins in PC-3 cells. Cells were treated with indicated compound 20 μmol/L for 24 h.
The invasion assay in PC-3 cells was performed using Matrigel (BD Biosciences, Bedford, MA, USA)-coated transwell cell culture chambers (8 μm pore size, EMD Millipore, Temecula, CA, USA) as described previously (43). Briefly, PC-3 cells (5 × 10^4 cells/well) were cultured in the upper chamber of the transwell insert for 24 h in serum-free RPMI-1640 medium. The cells were then treated with 5 μM of indicated compounds for 24 h. RPMI-1640 medium containing 10% FBS was placed in the lower chamber. At the end of incubation, the top surface of the non-migrated cells were scraped gently with cotton swabs and the cells on the lower surface of the membrane (migrated cells) were fixed for 15 min with cold methanol and stained with crystal violet. Cells that had migrated to the bottom of the membrane were visualized and counted using an inverted microscope. For each replicate (n = 3), cells in three randomly selected fields were counted and averaged.

The test system of another assay is C4-2B cells. Briefly: MTT cell proliferation assay, 7 d, C4-2B. As to conditions: Homo sapiens, 168 h, 7 d treatment. Format: cell-based.
Description: as §1, §2

The subject of the next assay is PWR-1E cells. Briefly: MTT cell proliferation assay, 7 d, PWR-1E. Format: cell-based. As to conditions: Homo sapiens, 168 h, immortalized untransformed prostate cells, 7 d treatment.
Description: as §1, §2

Another assay relates to Bax, cleaved PARP-1. Briefly: Western blot of Bax and cleaved PARP-1 in PCa cells. Type of assay: cell-based, human. The note with it: 20 μM, 24 h, among the lead NRs. The method, then: Figure 4 Effect of NRs on cell cycle and apoptosis (A) LNCaP cells treated with 5 μM of NRs and other compounds for 24 h were stained with PI and analysed with a FACS calibur flow cytometer. (B) Total cell lysates from PCa cells treated with 20 μM of NRs were separated by SDS-PAGE and probed with cyclin D1 and B antibodies. […] (C) LNCaP cells were treated with indicated compounds (5 μmol/L) for 24 h and apoptosis induction was examined by oligonucleosomal fragmentation. Data are shown relative to vehicle treated control and the bars are means of three replicate determinations plus standard deviations. *, P< 0.01; ♣, P<0.05 compared with vehicle treated control. (D) PCa cells as indicated were seeded in 24 well plate, and treated with 5 μmol/L of NRs the subsequent day. After 24 h the plates were analyzed for apoptotic and viable cells using acridine orange/ethidium bromide staining. (E) Western blot analysis of apoptosis associated Bax and cPARP in PCa cells treated with NRs (20 μmol/L) for 24 h. (F) Apoptosis induction in LNCaP cells treated with 5 μmol/L of VNLG-147 and -152 in the presence or absence of ZVAD (5 μmol/L) was assessed by oligonucleosomal fragmentation after 24 h incubation. *, P< 0.05 compared with vehicle treated control. […]
On the technique in general: A western blot detects proteins with antibodies after separation by electrophoresis.

Read-outs that look alike come from different tables or passages of the source.

With `CC1=C(/C=C/C(C)=C/C=C/C(C)=C/C(=O)Nc2ccc(F)cc2)C(C)(C)CCC1n1ccnc1` (racemic) [VNLG-152], the GI50 with 22Rv1 cells turned out to be 3230 nM; in the assay with LNCaP cells (read-out: GI50 LNCaP) it was 2450 nM; in the assay on LNCaP cells (Homo sapiens, LNCaP, 168 h, read-out: GI50 LNCaP) it was 2500 nM; in the assay with LNCaP cells (Homo sapiens, LNCaP, 168 h, DHT induced, read-out: GI50 LNCaP, DHT induced) it was 1860 nM; in the assay on PC-3 cells [1], 5620 nM; in the assay on C4-2B cells, 1540 nM. Besides, the GI50 in the assay on PWR-1E cells is 47900 nM. Besides, the “percentage of cell invasion compared to control” value in the assay with PC-3 cells [2] is 13. Further, the “efficacy in inducing PARP cleavage and/or increasing Bax expression” value with Bax, cleaved PARP-1 is “greater efficacies”.
